Assay results reported in ChEMBL document CHEMBL1141050, “Design and synthesis of a novel peptidomimetic inhibitor of HIV-1 Tat-TAR interactions: squaryldiamide as a new potential bioisostere of unsubstituted guanidine” (Bioorg Med Chem Lett, 2005).

What was measured:
Set-up in all cases: species or system Human immunodeficiency virus 1
Protein Tat [1] = target: T1, Protein Tat (Human immunodeficiency virus type 1 group M subtype B (isolate HXB2)(HIV-1), UniProt P04608); assay: In vitro binding affinity towards Tat/TAR to determine interaction between TAR RNA and Tat peptide at room temperature using fluorescence spectrophotometer
T1 sequence (P04608 whole entry): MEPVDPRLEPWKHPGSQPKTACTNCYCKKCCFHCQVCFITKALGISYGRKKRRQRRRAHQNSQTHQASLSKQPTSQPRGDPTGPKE

Protein Tat [2] = target: T1, Protein Tat; assay: In vitro binding affinity towards Tat/TAR to determine interaction between TAR RNA and Tat peptide at room temperature using fluorescence spectrophotometer; mb denotes multiple binding
Protein Tat [3] = target: T1, Protein Tat; assay: In vitro binding affinity towards Tat/TAR to determine interaction between TAR RNA and Tat peptide at room temperature using fluorescence spectrophotometer; nb denotes no binding

Kd (Protein Tat [1])	Structure (SMILES)	also measured
741 µM	N=c1c(O)c(O)/c1=N\CCCC(N)COC(=O)NC(CCCN=C(N)N)COC(N)=O (configuration not stated)	
1.8 µM	N=C(N)NCCC[C@H](N)COC(=O)N(CCCCN)CC(=O)N[C@H](CCCCN)COC(N)=O	

The next lines start with the compound.

Structure (SMILES)	Kd (Protein Tat [1])	also measured
NCCCC[C@H](COC(N)=O)NC(=O)CN(CCCCN)C(=O)OC[C@@H](N)CCCN=C(N)N[N+](=O)[O-]	952 µM	
NC(=O)OCCNC(=O)CNC(=O)OC[C@@H](N)CCCN=C(N)N		Kd (Protein Tat [2]): Multiple binding
N=c1c(O)c(O)/c1=N\CCCC(N)COC(=O)NC(CCCCN)COC(N)=O (configuration not stated)		Kd (Protein Tat [3]): Not Active
NCCCC[C@H](COC(N)=O)NC(=O)CN(CCCCN)C(=O)OCCN		Kd (Protein Tat [3]): Not Active
N=c1c(O)c(O)/c1=N/CCC[C@H](N)COC(=O)N(CCCCN)CC(=O)N[C@H](CCCCN)COC(N)=O	7.7 µM	
